Counter-ions that a name gives are not always drawn.
Molecular target: T1, recombinant human 15-PGDH (Homo sapiens, UniProt P15428)
T1 construct: purchased R&D Systems
T1 sequence (P15428 1-266): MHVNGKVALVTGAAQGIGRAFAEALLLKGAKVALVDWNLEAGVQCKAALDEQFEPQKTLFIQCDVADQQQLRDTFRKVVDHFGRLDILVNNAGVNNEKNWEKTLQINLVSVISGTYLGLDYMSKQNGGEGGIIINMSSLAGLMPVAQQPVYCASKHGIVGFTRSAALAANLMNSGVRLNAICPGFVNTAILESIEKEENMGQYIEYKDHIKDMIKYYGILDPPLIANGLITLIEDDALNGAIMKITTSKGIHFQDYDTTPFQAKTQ
Test: 15-PGDH enzyme inhibition test
Assay type: biochemical
Settings: 4 nM recombinant human 15-PGDH, 30 μM PGE2, 1 mM NAD+, 60 minutes after starting the reaction; read-out: IC50 Value
Procedure, shortened: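 Fluorescence (excitation 340 nm, emission 440 nm) measured 60 min after adding 1 mM NAD+ and 30 μM PGE2 to 4 nM recombinant human 15-PGDH, which had stood 12 min at room temperature with compound in pH 8.0 Tris-HCl buffer. Concentration-response curves yield IC50, binned into potency categories.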

| Compound | IC50 |
| --- | --- |
| CO[C@H]1CCCN(C(=O)c2cnc3c(c2)OCCN3c2ccn3c(=O)n(C)nc3c2)C1 [Example 18-2] | < 10 nM |
| COC(=O)c1ccc(N2CCN(c3ccn4c(=O)n(C)nc4c3)c3ncc(C(=O)N4CCC(F)(F)CC4)cc32)cc1 [Example 30-3] | 10 to 100 nM |
| CCn1nc2cc(N3CCCc4cc(C(=O)N5CCCC(C)(F)C5)cnc43)ccn2c1=O (stereo not shown) [Example 8-166] | < 10 nM |
| CCn1nc2cc(N3CCOc4cc(C(=O)N5CCC5)cnc43)ccn2c1=O [Example 8-16] | < 10 nM |
| O=C(NC1COC1)c1ccc(N2CCCc3cc(C(=O)N4CCCCC4)cnc32)cc1F [Example 1-62] | < 10 nM |
| O=C(c1cnc2c(c1)CCCN2c1ccn2c(=O)n(C3CC3)nc2c1)N1CCCCC1 [Example 26-1, 2-Cyclopropyl-7-(6-(piperidine-1-carbonyl)-3,4-dihydro-1,8-naphthylidin-1(2H)-yl)-[1,2,4]triazolo[4,3-a]pyridin-3(2H)-one] | < 10 nM |
| Cn1nc2cc(N3CCOc4cc(C(=O)N5CCC[C@@H](F)C5)cnc43)ccn2c1=O [Example 8-23] | < 10 nM |
| O=C(O)Cc1ccc(N2CCOc3cc(C(=O)N4CCCCC4)ccc32)cc1 [Example 2-32] | < 10 nM |
| C[C@H]1CCCCN1C(=O)c1cnc2c(c1)OCCN2c1ccn2c(=O)n(C)nc2c1 [Example 8-28] | < 10 nM |
| CCN1Cc2cc(N3CCCc4cc(C(=O)N5CCC[C@@H](F)C5)cnc43)ccc2C1=O [Example 8-83] | < 10 nM |
| O=C(c1cnc2c(c1)CCCN2c1cnc2c(=O)[nH]ncc2c1)N1CCCCC1 [Example 1-195] | < 10 nM |
| O=C(O)Cn1nc2cc(N3CCOc4cc(C(=O)N5CCCCC5)cnc43)ccn2c1=O [Example 2-23] | < 10 nM |
| COc1ccc(N2CCCc3cc(C(=O)N4CCCCC4)cnc32)cc1 [Example 1-200] | 10 to 100 nM |
| Cn1nc2cc(N3CCOc4cc(C(=O)N5CCCC(C)(F)C5)cnc43)ccn2c1=O (single isomer, unassigned) [23-2 Isomer B] | < 10 nM |
| Cn1nc2cc(N3CCOc4cc(C(=O)N5CCC[C@H](F)C5)cnc43)ccn2c1=O [Example 8-27] | < 10 nM |
| CCn1nc2cc(N3CCCc4cc(C(=O)N5Cc6ccccc6C5)cnc43)ccn2c1=O [Example 8-156] | < 10 nM |
| Cn1nc2cc(N3CCOc4cc(C(=O)N5CCCC6CC65)cnc43)ccn2c1=O (single isomer, unassigned) [23-1 Isomer B, 7-(7-(2-Azabicyclo[4,1,0]heptane-2-carbonyl)-2,3-dihydro-4H-pyrido[3,2-b][1,4]oxazin-4-yl)-2-methyl-[1,2,4]triazolo[4,3-a]pyridin-3(2H)-one] | < 10 nM |
| CS(=O)(=O)CCc1ccc(N2CCOc3cc(C(=O)N4CCCCC4)ccc32)cc1 [Example 1-161] | < 10 nM |
| CNC(=O)c1ccc(N2CCCc3cc(C(=O)N4CCC(F)(F)CC4)cnc32)cc1F [Example 1-175] | < 10 nM |
| CNC(=O)c1ccc(N2CCOc3cc(C(=O)N4CCC(F)(F)CC4)ccc32)cc1OC [Example 6-1, 4-(7-(4,4-Difluoropiperidine-1-carbonyl)-2,3-dihydro-4H-benzo[b][1,4]oxazin-4-yl)-2-methoxy-N-methylbenzamide] | < 10 nM |
| Cn1nc2cc(N3CCOc4cc(C(=O)N5CC6CC6C5)cnc43)ccn2c1=O (stereo not shown) [Example 8-99] | < 10 nM |
| COc1cc(N2CCOc3cc(C(=O)N4CCC(F)(F)CC4)ccc32)ccc1C(N)=O [Example 5-2] | < 10 nM |
| CNC1CCCN(C(=O)c2cnc3c(c2)OCCN3c2ccn3c(=O)n(C)nc3c2)C1 (stereo not shown) [Example 32-1, 2-Methyl-7-(7-(3-(methylamino)piperidine-1-carbonyl)-2,3-dihydro-4H-pyrido[3,2-b][1,4]oxazin-4-yl)-[1,2,4]triazolo[4,3-a]pyridin-3(2H)-one Trifluoroacetate] | > 100 nM |

| Compound | IC50 |
| --- | --- |
| O=C(c1cnc2c(c1)OCCN2c1ccc(Br)cc1)N1CCCCC1 [Example 1-243] | 10 to 100 nM |
| Cn1nc2cc(N3CCCc4cc(C(=O)N5CCc6ccccc6C5)cnc43)ccn2c1=O [Example 8-130] | < 10 nM |
| Cn1nc2cc(N3CCCCOc4cc(C(=O)N5CCCCC5)cnc43)ccn2c1=O [Example 1-98] | 10 to 100 nM |
| O=C(c1cnc2c(c1)OCCN2c1ccn2c(=O)[nH]nc2c1)N1CCCCC1 [Example 1-30] | < 10 nM |
| Cn1nc2cc(N3CCCOc4cc(C(=O)N5CCC(F)(F)CC5)cnc43)ccn2c1=O [Example 8-64] | < 10 nM |
| Cn1nc2cc(N3CCOc4cc(C(=O)N5CCOC6(CC6)C5)cnc43)ccn2c1=O [Example 8-49] | < 10 nM |
| CCn1nc2cc(N3CCOc4cc(C(=O)N5CCCCCCC5)cnc43)ccn2c1=O [Example 8-17] | < 10 nM |
| O=C(O)C1CCC(N2CCOc3cc(C(=O)N4CCCCC4)ccc32)CC1 (stereo not shown) [Example 4-13] | 10 to 100 nM |
| COc1c(C(=O)N2CCCCC2)ccc2c1OCCN2c1ccc(C(=O)O)cc1 [Example 2-2] | < 10 nM |
| CCN1Cc2cc(N3CCCc4cc(C(=O)N5CCCCCC5)cnc43)ccc2C1=O [Example 8-70] | < 10 nM |
| CN(CC(C)(C)O)C(=O)c1cnc2c(c1)OCCN2c1ccn2c(=O)n(C)nc2c1 [Example 8-182] | 10 to 100 nM |
| C[C@@H]1CCCCN1C(=O)c1cnc2c(c1)CCCN2c1ccn2c(=O)n(C)nc2c1 [Example 8-132] | < 10 nM |
| CCOCCN1Cc2cc(N3CCCc4cc(C(=O)N5CCCCC5)cnc43)ncc2C1=O [Example 1-73] | 10 to 100 nM |
| O=C(c1cnc2c(c1)OCCN2c1ccn2c(=O)n(Cc3ccnc(Cl)c3)nc2c1)N1CCCCC1 [Example 27-2] | < 10 nM |
| CN1Cc2cc(N3CCOc4cc(C(=O)N5CCC(F)(F)CC5)cnc43)cnc2C1=O [Example 1-45] | < 10 nM |
| CC1c2cc(N3CCOc4cc(C(=O)N5CCCCC5)cnc43)ccc2C(=O)N1C (single isomer, unassigned) [16-1 Isomer B, 2,3-Dimethyl-5-(7-(piperidine-1-carbonyl)-2,3-dihydro-4H-pyrido[3,2-b] [1,4]oxazin-4-yl)isoindolin-1-one] | < 10 nM |
| CCn1nc2cc(N3CCCc4cc(C(=O)N5CCCC(F)(F)C5)cnc43)ccn2c1=O [Example 8-164] | < 10 nM |
| O=C(c1cnc2c(c1)OCCN2c1ccn2ncnc2c1)N1CCCCC1 [Example 1-106] | < 10 nM |
| COCCCNC(=O)c1cnc2c(c1)OCCN2c1ccn2c(=O)n(C)nc2c1 [Example 8-107] | < 10 nM |
| Cn1nc2cc(N3CCOc4cc(C(=O)N5CCCC(F)(F)C5)cnc43)ccn2c1=O [Example 8-24] | < 10 nM |
| Cn1nc2cc(N3CCOc4c3ccc(C(=O)N3CCCCC3)c4Cl)ccn2c1=O [Example 1-265] | < 10 nM |
| Cn1nc2cc(N3CCCc4cc([S+]([O-])C5CCCCC5)cnc43)ccn2c1=O (stereo not shown) [Example 7-7] | < 10 nM |
| O=C(O)c1ccccc1N1CCOc2cc(C(=O)N3CCCCC3)cnc21 [Example 2-36] | > 100 nM |

| Compound | IC50 |
| --- | --- |
| O=C(c1cnc2c(c1)CCCN2c1ccc2c(=O)[nH]ccc2c1)N1CCC(F)(F)CC1 [Example 1-181] | < 10 nM |
| CCN1Cc2cc(N3CCCc4cc(C(=O)N5CC=CCC5)cnc43)ccc2C1=O [Example 8-75] | < 10 nM |
| CCn1nc2cc(N3CCOc4cc(C(=O)N5CCC(F)(F)CC5)cnc43)ccn2c1=O [Example 8-211] | < 10 nM |
| Cn1nc2cc(N3CCOc4cc(C(=O)N5CCCCC5)ccc43)ccn2c1=O [Example 1-25] | < 10 nM |
| Cn1ncc2cc(N3CCCc4cc(C(=O)N5CCC(F)(F)CC5)cnc43)ccc2c1=O [Example 1-189] | < 10 nM |
| C[C@@H]1CCCCN1C(=O)c1cnc2c(c1)OCCN2c1ccn2c(=O)n(C)nc2c1 [Example 8-21] | < 10 nM |
| Cn1nc2cc(N3CCCc4cc(C(=O)N5CCCC(C)(F)C5)cnc43)ccn2c1=O (stereo not shown) [Example 8-141] | < 10 nM |
| CN1Cc2cc(N3CCOc4cc(C(=O)N5CCOCC5)cnc43)ccc2C1=O [Example 8-188] | < 10 nM |
| Cn1nc2cc(N3CCOc4cc(C(=O)N5CCCC(C)(F)C5)cnc43)ccn2c1=O (stereo not shown) [Example 8-48] | < 10 nM |
| Cn1nc2cc(N3CCCc4cc(C(=O)N5CCC[C@H](C(F)(F)F)C5)cnc43)ccn2c1=O [Example 8-146] | < 10 nM |
| Cn1nc2cc(N3CCOc4cc(C(=O)N5[C@@H]6CCC[C@H]5CC6)cnc43)ccn2c1=O [Example 8-56] | < 10 nM |
| Cn1ncc2cc(N3CCOc4cc(C(=O)N5CCCCC5)cnc43)ccc2c1=O [Example 1-218] | < 10 nM |
| CCN1CCN(c2ccn3c(=O)n(C)nc3c2)c2ncc(C(=O)N3CCC(F)(F)CC3)cc21 [Example 29-5] | < 10 nM |
| COCn1nc2cc(N3CCOc4cc(C(=O)N5CCC[C@H](C)C5)cnc43)ccn2c1=O [Example 1-41] | < 10 nM |
| CCN(CC(C)O)C(=O)c1cnc2c(c1)OCCN2c1ccn2c(=O)n(C)nc2c1 (stereo not shown) [Example 8-179] | 10 to 100 nM |
| CN1CCN(c2ccccc2)c2ncc(C(=O)N3CCCCC3)cc21 [Example 1-228] | > 100 nM |
| CCn1nc2cc(N3CCOc4cc(C(=O)N5CCN(C(C)=O)CC5)cnc43)ccn2c1=O [Example 8-219] | > 100 nM |
| Cn1nc2cc(N3CCOc4nc(C(=O)N5CCCCC5)ccc43)ccn2c1=O [Example 8-53] | < 10 nM |
| CCn1nc2cc(N3CCCc4cc(C(=O)N5CCC[C@H](C(F)(F)F)C5)cnc43)ccn2c1=O [Example 8-171] | < 10 nM |
| COCCN1Cc2cc(N3CCCc4cc(C(=O)N5CCCCC5)cnc43)ncc2C1=O [Example 1-72] | 10 to 100 nM |
| COCCN1Cc2cc(N3CCCc4cc(C(=O)N5CCC(F)(F)CC5)cnc43)ncc2C1=O [Example 1-86] | 10 to 100 nM |
